Test results published in ChEMBL document CHEMBL1201862, “PubChem BioAssay data set” (2004).
Values belong to the compound of their own block, whether it stands above or below them. Active and inactive are the calls of the source.

What was measured:
[1] = target: T1, Intestinal-type alkaline phosphatase (Homo sapiens, UniProt P09923); experiment: activation of human intestinal alkaline phosphatase – biochemical, luminescent, uHTS hits, set 2, dose response (AID 488817); format: functional;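 further: potency of activators that raise enzyme activity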
T1 sequence (P09923 whole entry): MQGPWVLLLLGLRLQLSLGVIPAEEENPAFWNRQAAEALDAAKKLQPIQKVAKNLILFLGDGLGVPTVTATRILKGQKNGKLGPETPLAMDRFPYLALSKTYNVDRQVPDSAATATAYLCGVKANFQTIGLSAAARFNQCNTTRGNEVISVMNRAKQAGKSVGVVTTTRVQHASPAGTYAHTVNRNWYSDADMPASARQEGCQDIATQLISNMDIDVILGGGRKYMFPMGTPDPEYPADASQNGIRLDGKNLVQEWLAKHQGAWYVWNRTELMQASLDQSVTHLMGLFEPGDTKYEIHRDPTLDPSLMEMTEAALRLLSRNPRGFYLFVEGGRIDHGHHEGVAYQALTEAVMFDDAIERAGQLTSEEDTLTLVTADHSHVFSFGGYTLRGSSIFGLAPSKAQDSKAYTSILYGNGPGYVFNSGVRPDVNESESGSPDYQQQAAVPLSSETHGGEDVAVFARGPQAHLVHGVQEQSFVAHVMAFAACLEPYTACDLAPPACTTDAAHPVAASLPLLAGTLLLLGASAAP

[2] = target: T2, Alkaline phosphatase, tissue-nonspecific isozyme (Homo sapiens, UniProt P05186); experiment: activation of tissue-nonspecific alkaline phosphatase – biochemical, TNAP isozyme, human IAP uHTS hits, selectivity assay for human IAP activator project, dose response (AID 488886); format: functional;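 further: potency of compounds raising TNAP activity as a selectivity check on IAP activators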
T2 sequence (P05186 whole entry): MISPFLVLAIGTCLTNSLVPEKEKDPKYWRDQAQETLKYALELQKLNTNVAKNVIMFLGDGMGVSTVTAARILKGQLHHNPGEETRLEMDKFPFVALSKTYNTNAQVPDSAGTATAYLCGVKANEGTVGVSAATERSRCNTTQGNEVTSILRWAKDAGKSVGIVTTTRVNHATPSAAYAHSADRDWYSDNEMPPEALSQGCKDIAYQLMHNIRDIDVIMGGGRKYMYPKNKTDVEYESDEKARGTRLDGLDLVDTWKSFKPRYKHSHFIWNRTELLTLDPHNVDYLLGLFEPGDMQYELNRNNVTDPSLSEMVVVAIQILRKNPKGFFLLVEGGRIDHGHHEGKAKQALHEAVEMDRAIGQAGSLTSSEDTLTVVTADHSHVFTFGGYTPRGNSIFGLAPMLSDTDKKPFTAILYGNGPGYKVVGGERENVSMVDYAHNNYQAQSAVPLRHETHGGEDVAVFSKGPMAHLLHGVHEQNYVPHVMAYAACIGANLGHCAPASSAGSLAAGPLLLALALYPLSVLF

[3] = target: T1, Intestinal-type alkaline phosphatase; experiment: human intestinal alkaline phosphatase activators, dose response, biochemical, luminescence, uHTS hits (AID 463120); format: functional
[4] = target: T3, Intestinal-type alkaline phosphatase (Mus musculus, UniProt P24822); experiment: PubChem AID 488875; format: functional
T3 sequence (P24822 whole entry): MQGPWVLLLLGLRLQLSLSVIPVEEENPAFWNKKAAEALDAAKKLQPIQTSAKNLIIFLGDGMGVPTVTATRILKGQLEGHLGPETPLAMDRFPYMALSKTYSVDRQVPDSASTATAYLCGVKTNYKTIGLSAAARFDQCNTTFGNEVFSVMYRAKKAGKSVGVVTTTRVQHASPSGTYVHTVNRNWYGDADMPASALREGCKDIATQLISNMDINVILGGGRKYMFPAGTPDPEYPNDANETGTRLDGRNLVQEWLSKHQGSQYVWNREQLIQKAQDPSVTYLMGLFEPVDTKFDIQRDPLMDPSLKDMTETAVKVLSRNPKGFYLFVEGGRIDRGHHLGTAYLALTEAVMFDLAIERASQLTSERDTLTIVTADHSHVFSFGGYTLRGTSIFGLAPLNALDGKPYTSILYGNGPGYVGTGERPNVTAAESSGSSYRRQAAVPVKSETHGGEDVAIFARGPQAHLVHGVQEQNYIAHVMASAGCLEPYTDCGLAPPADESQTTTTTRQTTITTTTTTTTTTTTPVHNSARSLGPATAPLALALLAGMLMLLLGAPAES

Hexokinase HKDC1 = target: T4, Hexokinase HKDC1 (Homo sapiens, UniProt Q2TB90); experiment: inhibition of HKDC1 glucose phosphorylation – biochemical, W721R variant, dose response (AID 504729); format: functional
T4 sequence (Q2TB90 whole entry): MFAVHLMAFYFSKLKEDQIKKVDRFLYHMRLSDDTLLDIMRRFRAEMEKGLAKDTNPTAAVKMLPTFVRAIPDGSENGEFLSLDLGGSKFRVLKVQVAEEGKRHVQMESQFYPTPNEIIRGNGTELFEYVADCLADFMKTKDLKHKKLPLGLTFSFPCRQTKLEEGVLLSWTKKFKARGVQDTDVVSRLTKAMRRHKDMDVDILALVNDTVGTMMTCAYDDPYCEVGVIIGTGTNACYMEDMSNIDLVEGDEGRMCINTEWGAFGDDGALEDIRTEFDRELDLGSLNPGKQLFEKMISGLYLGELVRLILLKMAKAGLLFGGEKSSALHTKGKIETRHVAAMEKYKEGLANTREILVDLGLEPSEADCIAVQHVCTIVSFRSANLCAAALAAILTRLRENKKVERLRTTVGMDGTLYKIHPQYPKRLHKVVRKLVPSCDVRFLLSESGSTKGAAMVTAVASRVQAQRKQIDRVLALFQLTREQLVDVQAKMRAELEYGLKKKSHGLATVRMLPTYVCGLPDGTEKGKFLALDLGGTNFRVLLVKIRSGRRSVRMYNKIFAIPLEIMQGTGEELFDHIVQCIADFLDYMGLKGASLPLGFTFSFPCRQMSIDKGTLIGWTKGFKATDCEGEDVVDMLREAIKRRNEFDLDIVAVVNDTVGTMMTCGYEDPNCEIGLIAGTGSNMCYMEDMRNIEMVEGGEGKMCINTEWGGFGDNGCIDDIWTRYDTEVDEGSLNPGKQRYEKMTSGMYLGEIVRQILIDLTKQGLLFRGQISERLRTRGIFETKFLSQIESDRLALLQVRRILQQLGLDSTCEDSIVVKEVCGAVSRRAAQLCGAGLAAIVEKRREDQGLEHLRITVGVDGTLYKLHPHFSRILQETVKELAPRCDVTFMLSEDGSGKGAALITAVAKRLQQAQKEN

[5] = target: T2, Alkaline phosphatase, tissue-nonspecific isozyme; experiment: TNAP enzyme inhibition by screening hits, dose response, selectivity assay for mouse IAP inhibitor project, biochemical, human TNAP, uHTS hits (AID 488906); format: functional
[6] = NIH-3T3 fibroblast cytotoxicity, dose response, cytotoxicity control, cell-based, fluorescence, Alamar Blue, secondary assay (AID 2327); format: functional;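 further: NIH-3T3 mouse fibroblasts cultured with fluconazole at 8 µg/mL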
SUMO-activating enzyme [7] = target: T5, SUMO-activating enzyme (Homo sapiens, UniProt Q9UBT2); experiment: blockers of UBC9-mediated SUMO conjugation – biochemical, AlphaScreen, SUMOylation inhibitor project, confirmation (AID 2018); format: functional
T5 sequence (Q9UBE0 whole entry): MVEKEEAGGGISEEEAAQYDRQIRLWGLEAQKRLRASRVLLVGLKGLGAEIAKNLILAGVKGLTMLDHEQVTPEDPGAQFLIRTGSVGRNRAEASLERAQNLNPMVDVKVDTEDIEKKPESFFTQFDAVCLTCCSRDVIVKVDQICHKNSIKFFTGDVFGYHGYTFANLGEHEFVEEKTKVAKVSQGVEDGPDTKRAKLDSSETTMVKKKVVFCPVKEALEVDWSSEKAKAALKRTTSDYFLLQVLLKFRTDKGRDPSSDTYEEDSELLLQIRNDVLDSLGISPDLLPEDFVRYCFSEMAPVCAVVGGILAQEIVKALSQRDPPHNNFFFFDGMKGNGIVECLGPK
T5 sequence (Q9UBT2 whole entry): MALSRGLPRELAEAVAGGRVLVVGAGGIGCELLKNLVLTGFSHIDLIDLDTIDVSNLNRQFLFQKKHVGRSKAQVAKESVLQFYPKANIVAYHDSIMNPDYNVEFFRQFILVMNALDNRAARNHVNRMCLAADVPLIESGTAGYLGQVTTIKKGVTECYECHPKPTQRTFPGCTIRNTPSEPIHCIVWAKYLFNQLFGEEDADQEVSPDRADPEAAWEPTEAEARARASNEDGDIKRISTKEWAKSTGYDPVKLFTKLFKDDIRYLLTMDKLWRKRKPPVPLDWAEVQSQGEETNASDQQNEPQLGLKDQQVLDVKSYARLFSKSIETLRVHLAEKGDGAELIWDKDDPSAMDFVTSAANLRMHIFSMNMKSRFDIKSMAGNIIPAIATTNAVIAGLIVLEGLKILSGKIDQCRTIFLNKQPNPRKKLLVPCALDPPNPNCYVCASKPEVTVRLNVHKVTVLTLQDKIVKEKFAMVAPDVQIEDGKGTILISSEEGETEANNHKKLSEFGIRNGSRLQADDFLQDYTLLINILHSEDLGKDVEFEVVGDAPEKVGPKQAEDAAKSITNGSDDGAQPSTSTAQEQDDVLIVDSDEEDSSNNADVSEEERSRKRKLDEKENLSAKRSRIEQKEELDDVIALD

[8] = target: T3, Intestinal-type alkaline phosphatase; experiment: PubChem AID 488785; format: functional
[9] = target: T1, Intestinal-type alkaline phosphatase; experiment: inhibition of human intestinal alkaline phosphatase – biochemical, dose response (AID 488876); format: functional
[10] = fluconazole-exposed Candida albicans growth modulators – fluorescence, retest, confirmation (AID 2467); format: functional, cell-based
[11] = target: Induced myeloid leukemia cell differentiation protein Mcl-1 (Homo sapiens, UniProt Q07820); format: functional
SUMO-activating enzyme [12] = target: T5, SUMO-activating enzyme; experiment: blockers of SAE1/SAE2–UBC9 SUMO transfer – biochemical, HTRF, uHTS, primary screen (AID 2006); format: protein-complex assay
[13] = target: DNA dC->dU-editing enzyme APOBEC-3G (Homo sapiens, UniProt Q9HC16); experiment: Dose Response confirmation of small molecule APOBEC3G DNA Deaminase Inhibitors via a fluorescence-based single-stranded DNA deaminase assay. [Related pubchem assays (depositor defined):AID493012, AID493028]; format: functional
Sequence of DNA dC->dU-editing enzyme APOBEC-3G (Q9HC16 whole entry): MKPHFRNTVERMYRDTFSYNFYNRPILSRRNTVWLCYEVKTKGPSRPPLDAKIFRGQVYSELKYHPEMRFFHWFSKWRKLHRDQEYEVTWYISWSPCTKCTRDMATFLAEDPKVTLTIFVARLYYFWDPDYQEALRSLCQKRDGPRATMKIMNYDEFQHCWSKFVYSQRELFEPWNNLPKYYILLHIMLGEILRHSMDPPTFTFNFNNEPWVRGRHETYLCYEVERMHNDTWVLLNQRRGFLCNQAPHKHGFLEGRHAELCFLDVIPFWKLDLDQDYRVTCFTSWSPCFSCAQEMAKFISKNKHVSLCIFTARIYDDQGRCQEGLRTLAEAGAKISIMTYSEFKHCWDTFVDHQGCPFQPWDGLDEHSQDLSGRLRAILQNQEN

[14] = target: Alkaline phosphatase, placental type (Homo sapiens, UniProt P05187); experiment: human placental alkaline phosphatase inhibition – biochemical, luminescence, confirmation (AID 1512); format: functional
Sequence of Alkaline phosphatase, placental type (P05187 whole entry): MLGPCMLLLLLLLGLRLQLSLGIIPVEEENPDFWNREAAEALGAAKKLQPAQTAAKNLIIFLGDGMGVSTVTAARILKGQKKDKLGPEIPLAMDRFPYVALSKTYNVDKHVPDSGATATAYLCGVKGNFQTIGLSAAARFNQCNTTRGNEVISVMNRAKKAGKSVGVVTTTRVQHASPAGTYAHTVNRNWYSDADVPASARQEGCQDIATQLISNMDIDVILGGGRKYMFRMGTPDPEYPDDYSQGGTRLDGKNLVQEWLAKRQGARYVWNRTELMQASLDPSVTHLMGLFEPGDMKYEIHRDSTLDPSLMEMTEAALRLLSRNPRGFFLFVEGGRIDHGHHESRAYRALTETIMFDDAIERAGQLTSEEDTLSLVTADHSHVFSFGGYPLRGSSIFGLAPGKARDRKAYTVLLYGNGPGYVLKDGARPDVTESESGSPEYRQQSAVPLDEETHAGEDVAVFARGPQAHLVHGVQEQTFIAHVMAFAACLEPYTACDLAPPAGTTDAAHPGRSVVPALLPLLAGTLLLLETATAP

Protein skinhead-1 = target: T6, Protein skinhead-1 (Caenorhabditis elegans, UniProt P34707); format: functional
T6 sequence (P34707 whole entry): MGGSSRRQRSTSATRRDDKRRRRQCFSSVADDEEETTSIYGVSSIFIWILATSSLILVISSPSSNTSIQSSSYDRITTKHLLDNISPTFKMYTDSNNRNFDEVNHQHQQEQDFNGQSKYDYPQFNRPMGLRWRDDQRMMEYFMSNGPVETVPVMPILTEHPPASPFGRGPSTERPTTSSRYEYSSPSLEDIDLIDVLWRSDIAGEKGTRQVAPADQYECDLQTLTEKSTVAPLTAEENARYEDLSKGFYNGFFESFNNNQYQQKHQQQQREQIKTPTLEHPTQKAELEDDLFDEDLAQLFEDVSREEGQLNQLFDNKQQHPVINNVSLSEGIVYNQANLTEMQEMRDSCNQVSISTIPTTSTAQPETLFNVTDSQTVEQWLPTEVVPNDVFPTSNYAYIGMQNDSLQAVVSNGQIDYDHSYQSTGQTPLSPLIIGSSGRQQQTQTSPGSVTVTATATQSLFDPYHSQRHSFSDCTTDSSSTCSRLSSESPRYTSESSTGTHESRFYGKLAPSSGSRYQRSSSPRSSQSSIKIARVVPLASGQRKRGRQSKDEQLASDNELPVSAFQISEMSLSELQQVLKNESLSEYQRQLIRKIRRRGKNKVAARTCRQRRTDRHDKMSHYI

[15] = target: Female germline-specific tumor suppressor gld-1 (Caenorhabditis elegans, UniProt Q17339); experiment: blockers of GLD-1/TGE RNA complex formation – biochemical, fluorescence polarization, C. elegans, dose response (AID 2802);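 further: fluorescence polarization of labeled TGE RNA bound by purified gld-1 protein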
Sequence of Female germline-specific tumor suppressor gld-1 (Q17339 whole entry): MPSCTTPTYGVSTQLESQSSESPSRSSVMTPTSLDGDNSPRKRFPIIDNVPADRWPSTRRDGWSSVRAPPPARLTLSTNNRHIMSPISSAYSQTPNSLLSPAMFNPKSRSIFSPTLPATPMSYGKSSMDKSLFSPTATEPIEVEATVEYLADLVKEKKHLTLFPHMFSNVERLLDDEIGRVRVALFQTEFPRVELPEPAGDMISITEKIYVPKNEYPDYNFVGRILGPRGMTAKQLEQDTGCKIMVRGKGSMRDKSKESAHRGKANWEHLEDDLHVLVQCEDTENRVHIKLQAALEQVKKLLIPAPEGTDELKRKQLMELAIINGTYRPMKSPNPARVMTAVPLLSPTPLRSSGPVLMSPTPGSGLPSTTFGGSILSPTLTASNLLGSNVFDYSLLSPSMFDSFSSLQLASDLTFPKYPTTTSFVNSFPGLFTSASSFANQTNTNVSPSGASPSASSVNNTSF

[16] = target: T7, Polyadenylate-binding protein 1 (Homo sapiens, UniProt P11940); experiment: MLLE binding blockers, Cy5 peptide tracer – biochemical, fluorescence polarization, Cy5-PAM2 peptide, secondary, miRNA deadenylation inhibitor project, dose response (AID 602260); format: functional; details: read-out: IC50_Mean
T7 sequence (P11940 whole entry): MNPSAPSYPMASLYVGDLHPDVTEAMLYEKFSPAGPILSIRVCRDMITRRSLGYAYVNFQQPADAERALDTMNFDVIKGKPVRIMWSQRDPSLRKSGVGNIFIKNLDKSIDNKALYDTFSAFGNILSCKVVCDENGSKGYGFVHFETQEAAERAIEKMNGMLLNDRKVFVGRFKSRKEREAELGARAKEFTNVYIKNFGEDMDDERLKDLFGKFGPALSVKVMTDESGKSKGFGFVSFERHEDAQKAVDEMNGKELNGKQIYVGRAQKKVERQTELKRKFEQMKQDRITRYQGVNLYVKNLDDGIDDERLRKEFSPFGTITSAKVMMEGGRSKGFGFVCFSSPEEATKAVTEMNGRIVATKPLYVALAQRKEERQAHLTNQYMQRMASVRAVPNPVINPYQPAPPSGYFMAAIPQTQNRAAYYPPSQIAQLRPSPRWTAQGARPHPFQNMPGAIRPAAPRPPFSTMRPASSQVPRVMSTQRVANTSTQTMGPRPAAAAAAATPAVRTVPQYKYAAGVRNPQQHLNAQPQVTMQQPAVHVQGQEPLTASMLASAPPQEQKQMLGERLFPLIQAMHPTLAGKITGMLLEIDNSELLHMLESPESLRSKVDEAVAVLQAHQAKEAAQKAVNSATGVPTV

Protein Rev = Protein Rev (Human immunodeficiency virus type 1 group M subtype B (isolate HXB2)(HIV-1), UniProt P04618); experiment: blockers of HIV Rev/RRE RNA complex – biochemical, fluorescence polarization, HIV-1, dose response (AID 434976); set-up: species or system Human immunodeficiency virus 1
Sequence of Protein Rev (P04618 whole entry, the tested form may be a part): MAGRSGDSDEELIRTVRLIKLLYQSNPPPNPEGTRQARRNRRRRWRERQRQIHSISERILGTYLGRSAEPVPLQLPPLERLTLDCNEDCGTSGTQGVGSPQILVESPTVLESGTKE

[17] = target: T8, RNA-binding protein pos-1 (Caenorhabditis elegans, UniProt G5EF15); experiment: disruptors of C. elegans POS-1 RNA interaction – biochemical, fluorescence polarization, dose response (AID 1964);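 further: purified POS-1 fused to maltose binding protein made in E. coli; potency of compounds blocking POS-1 binding to fluorescent RNA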
T8 sequence (G5EF15 whole entry): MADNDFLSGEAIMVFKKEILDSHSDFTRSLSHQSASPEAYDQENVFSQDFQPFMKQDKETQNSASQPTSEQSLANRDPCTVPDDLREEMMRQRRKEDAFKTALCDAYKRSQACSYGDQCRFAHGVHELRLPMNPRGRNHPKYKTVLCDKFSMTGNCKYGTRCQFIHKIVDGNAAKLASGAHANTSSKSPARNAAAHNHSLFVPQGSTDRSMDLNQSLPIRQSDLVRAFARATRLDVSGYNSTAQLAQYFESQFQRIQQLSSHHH

14-3-3 protein gamma = 14-3-3 protein gamma (Homo sapiens, UniProt P61981); experiment: modulators of 14-3-3 gamma client binding – dose response (AID 711); format: functional
Sequence of 14-3-3 protein gamma (P61981 whole entry): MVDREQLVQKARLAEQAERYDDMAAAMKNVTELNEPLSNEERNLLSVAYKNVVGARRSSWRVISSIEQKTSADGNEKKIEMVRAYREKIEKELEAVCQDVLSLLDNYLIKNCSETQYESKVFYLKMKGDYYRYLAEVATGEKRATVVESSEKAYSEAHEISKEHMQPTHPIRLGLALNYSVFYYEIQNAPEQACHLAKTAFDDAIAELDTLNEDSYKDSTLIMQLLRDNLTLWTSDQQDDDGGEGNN

[18] = target: T9, Zinc finger protein mex-5 (Caenorhabditis elegans, UniProt Q9XUB2); experiment: potency of MEX-5 RNA-binding blockers – biochemical, C. elegans, fluorescence polarization, dose response (AID 1960)
T9 sequence (Q9XUB2 whole entry): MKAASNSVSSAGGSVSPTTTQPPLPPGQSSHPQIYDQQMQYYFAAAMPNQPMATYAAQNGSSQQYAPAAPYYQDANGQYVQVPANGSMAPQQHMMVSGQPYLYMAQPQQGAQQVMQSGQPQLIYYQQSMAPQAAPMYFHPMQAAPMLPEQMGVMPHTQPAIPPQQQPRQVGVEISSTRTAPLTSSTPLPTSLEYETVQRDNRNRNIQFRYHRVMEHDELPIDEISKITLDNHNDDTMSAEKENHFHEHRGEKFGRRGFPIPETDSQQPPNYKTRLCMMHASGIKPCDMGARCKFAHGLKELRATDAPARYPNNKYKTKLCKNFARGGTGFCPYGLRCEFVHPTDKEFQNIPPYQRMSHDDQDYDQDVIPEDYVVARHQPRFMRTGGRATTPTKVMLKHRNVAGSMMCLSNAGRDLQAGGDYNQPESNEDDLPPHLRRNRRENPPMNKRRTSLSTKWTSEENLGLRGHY

[19] = target: T7, Polyadenylate-binding protein 1; experiment: MLLE domain peptide-binding blockers, IC50 – biochemical, fluorescence polarization, FITC-PAM2 peptide, dose response (AID 602259); format: functional; details: read-out: IC50_Mean
[20] = target: T10, E3 ubiquitin-protein ligase XIAP (Homo sapiens, UniProt P98170); experiment: small molecules displacing peptide from XIAP – biochemical, IAP family, fluorescence polarization (AID 1018); format: functional
T10 sequence (P98170 whole entry): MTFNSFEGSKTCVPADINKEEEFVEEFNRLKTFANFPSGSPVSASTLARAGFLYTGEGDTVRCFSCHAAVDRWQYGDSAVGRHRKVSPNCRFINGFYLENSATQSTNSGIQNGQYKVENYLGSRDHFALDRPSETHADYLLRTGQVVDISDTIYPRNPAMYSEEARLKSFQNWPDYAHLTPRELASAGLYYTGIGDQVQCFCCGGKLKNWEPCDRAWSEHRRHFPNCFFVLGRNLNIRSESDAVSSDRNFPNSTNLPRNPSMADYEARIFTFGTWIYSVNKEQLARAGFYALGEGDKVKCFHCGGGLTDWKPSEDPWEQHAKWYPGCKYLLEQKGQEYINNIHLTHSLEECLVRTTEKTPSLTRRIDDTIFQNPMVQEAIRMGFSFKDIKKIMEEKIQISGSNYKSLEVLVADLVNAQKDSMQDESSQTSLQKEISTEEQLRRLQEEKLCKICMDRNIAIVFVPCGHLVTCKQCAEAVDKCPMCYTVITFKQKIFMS

[21] = target: T10, E3 ubiquitin-protein ligase XIAP; experiment: Counter Screen using XIAP-Bir3 for Chemical Antagonists of Bir1/2 domains of IAP-family anti-apoptotic proteins. [Related pubchem assays (depositor defined):AID1018, AID1449, AID1514, AID1638, AID1749, AID1750, AID488957, AID488963]

SMILES: Cc1ccc(/C=C2\SC(=S)N(/N=C/c3cc([N+](=O)[O-])ccc3O)C2=O)o1
- IC50 [5]: > 100 µM (inactive)
- EC50 [6]: > 150 µM (inactive)
- IC50 (SUMO-activating enzyme [7]): 0.35 µM (active)
- IC50 [8]: 61.9 µM (active)
- IC50 [9]: 80 µM (active)
- EC50 [10]: 27.8 µM (active)
- IC50 [11]: 1.53 µM (active)
- IC50 (SUMO-activating enzyme [12]): 4.54 µM (active)

SMILES: CC(=O)NC(=S)NNC(=O)C(c1ccccc1)c1ccccc1
- IC50 [13]: 35.1 µM (active)
- IC50 [14]: > 100 µM (inactive)

SMILES: COc1ccc(-c2nc(C[S+]([O-])CC(=O)NCc3ccccn3)c(C)o2)cc1 (stereo not given)
- IC50 (Protein skinhead-1): > 100 µM (inactive)
- IC50 [15]: 5 µM (active)
- IC50 [16]: > 66 µM (inactive)
- IC50 (Protein Rev): 19.4 µM (not active)
- EC50 [17]: 55.4 µM (active)
- IC50 (14-3-3 protein gamma): 10.7 µM (active)
- EC50 [18]: 30.5 µM (active)
- IC50 [19]: 29.4 µM (inactive)

Now from value to compound:

- EC50 [1]: 12.3 µM (active)
- EC50 [2]: 11 µM (active)
- EC50 [3]: 6.37 µM (active)
- EC50 [4]: > 100 µM (inactive)
SMILES: CC(=O)Nc1cccc(C(=O)NNC(=O)c2nnc(O)c3ccccc23)c1

- IC50 (Hexokinase HKDC1): 5.92 µM (active)
SMILES: O=C(CSc1n[nH]c(-c2cccnc2)n1)Nc1ccc([N+](=O)[O-])cc1Br

- IC50 [20]: > 100 µM (not active)
- IC50 [21]: > 100 µM (inactive)
SMILES: CCc1ccc(NC(=O)N2CCN(c3ccc(F)cc3)CC2)cc1
